Measured values as given in PMC9737772, “Synthesis and Anti-Inflammatory Activity of 1-Methylhydantoin Cinnamoyl Imides” (Molecules, 2022).
“Also recorded” adds a separate entry of the source.

Columns and labels:
[1] = Cytotoxicity determination by CCK-8; type: cell-based; conditions: mouse, RAW264.7 macrophage cells, RAW264.7 cells
Procedure: (§1) RAW264.7 mouse macrophages were purchased from Zhongqiao Xinzhou and cultured in DMEM supplemented with 10% fetal bovine serum (FBS) and 1% penicillin/streptomycin in a 37 °C, 5% CO2 incubator. The cells were passaged every two days to maintain the monolayer cell state.
The CCK-8 kit was used to determine the cytotoxicity of the target compounds (1–5) to RAW264.7 cells. The well-growing cells were subcultured in a 96-well plate. After the cells adhered to the wall, the experimental group was added with a medium containing different concentrations of compounds to make the final concentration reach 5, 10, 20, 40, 80, 160 and 320 μmoL/L. The control group was added with a medium without compound, and a blank group without cells or compound was set at the same time. After culturing in a constant temperature incubator for a period, CCK-8 solution was added to produce yellow formazan product. The OD value was measured by the microplate reader at the detection wavelength of 450 nm, and the cell survival rate was calculated. The cell survival rate formula is as follows:(1) Cell Survival Rate %=ODe−ODb/ODc−ODb×100% where ODe was the OD value of the experimental group, ODb was the OD value of the blank group, and ODc was the OD value of the control group.

[2] = biological target: T1, ovine cyclooxygenase-2 (COX-2); test: In vitro COX inhibition assay (enzyme immunoassay kit), COX-2; type: biochemical; conditions: ovine COX-2, enzyme immunoassay kit
T1 construct: purchased Cayman Chemical 560131
T1 sequence (P35354 18-604): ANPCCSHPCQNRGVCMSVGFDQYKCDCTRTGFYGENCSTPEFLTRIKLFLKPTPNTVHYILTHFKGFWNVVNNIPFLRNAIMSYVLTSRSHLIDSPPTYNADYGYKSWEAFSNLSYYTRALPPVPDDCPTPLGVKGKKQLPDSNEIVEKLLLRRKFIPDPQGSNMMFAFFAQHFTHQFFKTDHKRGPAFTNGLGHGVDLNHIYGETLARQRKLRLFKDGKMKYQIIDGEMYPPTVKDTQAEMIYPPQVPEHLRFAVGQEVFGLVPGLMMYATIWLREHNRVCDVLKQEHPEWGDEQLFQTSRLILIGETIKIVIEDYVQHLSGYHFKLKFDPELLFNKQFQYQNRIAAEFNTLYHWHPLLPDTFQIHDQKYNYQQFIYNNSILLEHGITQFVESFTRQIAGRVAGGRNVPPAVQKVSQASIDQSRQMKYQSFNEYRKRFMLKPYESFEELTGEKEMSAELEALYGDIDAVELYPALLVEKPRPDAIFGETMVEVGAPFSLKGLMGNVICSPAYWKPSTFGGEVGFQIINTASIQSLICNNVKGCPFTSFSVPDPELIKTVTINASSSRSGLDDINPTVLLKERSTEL
Procedure: The inhibition ability of 1-methylhydantoin cinnamic imides to ovine cyclooxygenase-1 (COX-1) and cyclooxygenase-2 (COX-2) was determined using an enzyme immunoassay kit. […] The Cell Counting Kit-8 (CCK-8) method was used to detect the cytotoxicity of the five target compounds (1–5) on lipopolysaccharide (LPS)-induced RAW264.7 cells. When the concentrations of compounds 1, 3 and 5 are lower than 20 μM, and when the concentrations of compounds 2 and 4 are lower than 80 μM, the survival rate of RAW264.7 cells is more than 95%, which has no obvious damage to cell survival and can be used for subsequent in vitro anti-inflammatory activity experiments to provide the basis.
The inhibition ability of ovine COX-1 and COX-2 was determined using an enzyme immunoassay kit (560131, Cayman Chemical, Ann Arbor, MI, USA) following the manufacturer’s instructions.

[3] = test system: TNF-α secretion in RAW264.7 cells induced by LPS; test: TNF-α content in supernatant of LPS-induced RAW264.7 cells (ELISA); type: cell-based, mouse
Procedure: Tumor necrosis factor-α (TNF-α) is a pleiotropic proinflammatory cytokine, known for its proinflammatory activity. To explore the inhibitory effects of five compounds on TNF-α, ELISA was used to determine the content of inflammatory factor TNF-α in the supernatant of RAW264.7 cells stimulated by LPS. RAW264.7 cells secreted a large amount of inflammatory-factor TNF-α 24 h after LPS (1 ug/mL) induction.
as §1
(§2) The RAW264.7 cells in the logarithmic growth phase were seeded in a 24-well plate and placed in a 37 °C, 5% CO2 constant temperature incubator for culture. After 24 h, the culture medium was discarded. The blank group was added with 10% FBS DMEM 1 mL. The group was added with a medium containing 1 ug/mL LPS, and the experimental group was added with LPS and different concentrations of the target compound to make the final volume 1 mL. After 24 h of culture, the cell supernatant was taken and stored in a refrigerator at −20 °C for later use. The Griess kit was used to determine the concentration of NO in the supernatant, and a double antibody sandwich ELISA kit was used to detect TNF-α and IL-1β.

[4] = test system: NO release from RAW264.7 cells induced by LPS; test: NO content in supernatant of LPS-induced RAW264.7 cells (Griess); type: cell-based, mouse; conditions: for inhibition of NO production: 80 μM, LPS 1 ug/mL, 24 h, RAW264.7; for inhibition of NO release: LPS-stimulated RAW264.7, concentration not stated
Procedure: NO is an important indicator to predict the anti-inflammatory effects of drugs. It has been identified as a proinflammatory cytokine in various inflammatory diseases. NO can induce vasodilation, recruit neutrophils and […] the activation of mast cells, leading to tissue damage. It is essential to reduce the production of NO for inflammatory release. To explore the anti-inflammatory effects of the five compounds, the LPS-induced inflammatory response of RAW264.7 cells was carried out. The NO content in the cell supernatant was measured by the Griess method to evaluate the inhibitory effects of these five compounds on NO production.
as §1, §2

[5] = test system: xylene-induced ear edema in mice; test: Xylene-induced ear edema in mice; type: in vivo, Kunming mice; conditions: for Degree of Edema: 30 μL xylene, 30 min, mean ± SD, n = 6; for Inhibition of ear swelling: xylene-induced ear edema
Procedure: To evaluate the differences in anti-inflammatory effects of the five compounds, the in vivo anti-inflammatory experiment was conducted based on the acute inflammation model of ear swelling induced by xylene. Under the inflammatory effect of 30 μL of xylene, the degree of ear swelling in the blank group and each experimental group was different. […] With an increase in dose the degree of ear swelling decreased, and the effect of ear swelling inhibition was more significant at high dose (100 mg/kg). Under the action of drugs, the five target compounds (1–5) have significant inhibitory effects on ear swelling (Figure 6).
Adult male Kunming mice (18–20 g) were bought from Liaoning Changsheng Biotechnology Co., Ltd. (Shenyang, China, License No. SCXK (Liao) 2015-0001). The breeding is carried out under standard conditions without pathogens (constant room temperature 20–22 °C, 55 ± 5% humidity, 12 h light–dark cycle and free access to food and water). The research protocol has been approved by the Animal Experiment Ethics Committee of the School of Pharmacy of Jilin University (20190048). All experimental operations follow the principles of laboratory animal care, and all animal experiments are conducted in accordance with the Guide for the Care and Use of Laboratory Animals (released by the National Research Council).
In this experiment, Kunming mice were randomly divided into two groups. One group was given 5% sodium carboxymethyl cellulose solution as the blank group, and the other group was given different concentrations of the target compound as the experimental group (high, medium and low doses); continuous intragastric administration was two days and the volume of intragastric administration was 0.2 mL. One hour after the last administration, 30 μL of xylene was evenly smeared on both sides of the mouse’s right ear. After 30 min, the mouse’s right ear was obviously red and swollen and the capillary congestion was severe. Cervical vertebrae were dislocated and sacrificed. The ears on both sides were quickly cut off, an 8 mm ear punch was used to punch holes at the same position on the ears on both sides and they were immediately weighed to calculate the weight difference.
The formula for the difference in ear weight is as follows:(2) D=Wr−Wl where Wr was the weight of the right ear and Wl was the weight of the left ear.
The formula for the inhibition rate of ear swelling is as follows:(3) Inhibition %=Dc−Dt/Dc×100% where Dc was the extent of ear edema of the control group and Dt was the extent of ear edema of the treatment group.

[6] = 80 μM, LPS 1 ug/mL, 24 h, RAW264.7, vs model group
[7] = LPS-stimulated RAW264.7, concentration not stated
[8] = 25 mg/kg intragastric for two days
[9] = 50 mg/kg intragastric for two days
[10] = 100 mg/kg (high dose) intragastric
[11] = 100 mg/kg intragastric for two days

IC50 [2]	melting point	Compound	CC50 [1]	inhibition of TNF-α secretion ([3]; 20 μM, LPS 1 ug/mL, 24 h, RAW264.7, vs model group)	inhibition of TNF-α secretion [3, 6]	inhibition of TNF-α secretion [3, 7]	inhibition of NO production [4]	inhibition of NO release [4]	Degree of Edema [5, 8]	Inhibition of ear swelling ([5]; 25 mg/kg intragastric)	Degree of Edema [5, 9]	Inhibition of ear swelling ([5]; 50 mg/kg intragastric)	Inhibition of ear swelling [5, 10]	Degree of Edema [5, 11]
204 ± 10 µM	128.9 to 129.8 °C	CN1CC(=O)N(C(=O)/C=C/c2ccco2)C1=O [Compound 2, (E)-3-(3-(furan-2-yl)acryloyl)-1-methylimidazolidine-2,4-dione]	329 µM	no obvious inhibitory effect on TNF-α	significantly reduce the secretion of TNF-α	reduce the secretion of TNF-α	showed a significant effect on NO	significantly inhibit the release of NO	8.68 ± 0.79 mg	29.14%	7.96 ± 0.23 mg	35.02%	49.47%	6.19 ± 1.13 mg
126 ± 12 µM	148.9 to 149.6 °C	CC(=O)Oc1ccc(/C=C/C(=O)N2C(=O)CN(C)C2=O)cc1 [Compound 4, (E)-4-(3-(3-methyl-2,5-dioxoimidazolidin-1-yl)-3-oxoprop-1-en-1-yl)phenyl acetate]	302 µM		significantly reduce the secretion of TNF-α; also recorded: most significant	reduce the secretion of TNF-α; also recorded: significantly inhibited the secretion of inflammatory factors TNF-α	showed a significant effect on NO	significantly inhibit the release of NO; also recorded: reduced the release of NO	11.03 ± 0.32 mg	9.96%	8.79 ± 0.76 mg	28.24%	40.16%	7.33 ± 0.51 mg
